Data as given in PubChem BioAssay AID1918932 (Molecular Pharmacology Branch, DTP, NCI, 2023).
Values joined by “and” are separate entries in the source; they are usually repeats but may differ in a detail not shown here. Equal values may be shown once.

Tested on: 171881-019-R-J1-PDC complex spheroid viability
Test: Anticancer human tumor 171881-019-R-J1-PDC patient-derived invasive breast carcinoma cell line growth inhibition
Settings: for viability, T/C: stronger effect = lower value; active means viability on the fitted dose curve at most 10% of control; inactive means the rest
Outline: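 Multicellular complex spheroids of tumor cells with human endothelial cells (HUVEC) and mesenchymal stem cells; the LSD1 inhibitor iadademstat was combined with standard-of-care or investigational agents. Top concentration at or near clinical Cmax, half-log dilutions; final DMSO ≤0.25%.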

[1] = curve of first compound, second compound 0.1 µM
[2] = curve of first compound, second compound 0.316 µM
[3] = curve of first compound, second compound 1 µM
[4] = curve of first compound, second compound 3.16 µM
[5] = curve of first compound, second compound 10 µM
[6] = second compound 0.1 µM, first compound 0.0316 µM
[7] = second compound 0.1 µM, first compound 0.1 µM
[8] = second compound 0.1 µM, first compound 0.316 µM
[9] = second compound 0.1 µM, first compound 1 µM
[10] = second compound 0.316 µM, first compound 0.0316 µM
[11] = second compound 0.316 µM, first compound 0.1 µM
[12] = second compound 0.316 µM, first compound 0.316 µM
[13] = second compound 0.316 µM, first compound 1 µM
[14] = second compound 1 µM, first compound 0.0316 µM
[15] = second compound 1 µM, first compound 0.1 µM
[16] = second compound 1 µM, first compound 0.316 µM
[17] = second compound 1 µM, first compound 1 µM
[18] = second compound 3.16 µM, first compound 0.0316 µM
[19] = second compound 3.16 µM, first compound 0.1 µM
[20] = second compound 3.16 µM, first compound 0.316 µM
[21] = second compound 3.16 µM, first compound 1 µM
[22] = second compound 10 µM, first compound 0.0316 µM
[23] = second compound 10 µM, first compound 0.1 µM
[24] = second compound 10 µM, first compound 0.316 µM
[25] = second compound 10 µM, first compound 1 µM
[26] = second compound 0.1 µM, first compound 0.00949 µM
[27] = second compound 0.1 µM, first compound 0.03 µM
[28] = second compound 0.1 µM, first compound 0.0949 µM
[29] = second compound 0.1 µM, first compound 0.3 µM
[30] = second compound 0.316 µM, first compound 0.00949 µM
[31] = second compound 0.316 µM, first compound 0.03 µM
[32] = second compound 0.316 µM, first compound 0.0949 µM
[33] = second compound 0.316 µM, first compound 0.3 µM
[34] = second compound 1 µM, first compound 0.00949 µM
[35] = second compound 1 µM, first compound 0.03 µM
[36] = second compound 1 µM, first compound 0.0949 µM
[37] = second compound 1 µM, first compound 0.3 µM
[38] = second compound 3.16 µM, first compound 0.00949 µM
[39] = second compound 3.16 µM, first compound 0.03 µM
[40] = second compound 3.16 µM, first compound 0.0949 µM
[41] = second compound 3.16 µM, first compound 0.3 µM
[42] = second compound 10 µM, first compound 0.00949 µM
[43] = second compound 10 µM, first compound 0.03 µM
[44] = second compound 10 µM, first compound 0.0949 µM
[45] = second compound 10 µM, first compound 0.3 µM
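Further: spheroids exposed to agents for 7 days after 3 days growth.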

CC1(C)CCC(CN2CCN(c3ccc(C(=O)NS(=O)(=O)c4ccc(NCC5CCOCC5)c([N+](=O)[O-])c4)c(Oc4cnc5[nH]ccc5c4)c3)CC2)=C(c2ccc(Cl)cc2)C1 + NC1CCC(NC2CC2c2ccccc2)CC1
1.72 µM: IC50 [4]
2.11 µM: IC50 [3]
inactive: viability, T/C [6] 71.9% | viability, T/C [7] 92.7% | viability, T/C [8] 68.4% | viability, T/C [9] 67.2% | viability, T/C (second compound 0.1 µM, first compound 3.16 µM) 42.7% | viability, T/C [10] 79.3% | viability, T/C [11] 83.8% | viability, T/C [12] 68.4% | viability, T/C [13] 66.9% | viability, T/C (second compound 0.316 µM, first compound 3.16 µM) 44.4% | viability, T/C [14] 88.7% | viability, T/C [15] 89.3% | viability, T/C [16] 73.8% | viability, T/C [17] 74.3% | viability, T/C (second compound 1 µM, first compound 3.16 µM) 37.9% | viability, T/C [18] 79.6% | viability, T/C [19] 74.9% | viability, T/C [20] 78.7% | viability, T/C [21] 61.4% | viability, T/C (second compound 3.16 µM, first compound 3.16 µM) 35.7% | viability, T/C [22] 91.3% | viability, T/C [23] 95.5% | viability, T/C [24] 76% | viability, T/C [25] 67.5% | viability, T/C (second compound 10 µM, first compound 3.16 µM) 39.5%
2.01 µM: IC50 [5]
active: viability, T/C (second compound 0.1 µM, first compound 10 µM) 2.57% | viability, T/C (second compound 0.316 µM, first compound 10 µM) 2.71% | viability, T/C (second compound 1 µM, first compound 10 µM) 7.6% | viability, T/C (second compound 3.16 µM, first compound 10 µM) 3.1% | viability, T/C (second compound 10 µM, first compound 10 µM) 2.78%
2.21 µM: IC50 [1]
2.3 µM: IC50 [2]

O=C(c1cc(Cc2n[nH]c(=O)c3ccccc23)ccc1F)N1CCN(C(=O)C2CC2)CC1
> 10 µM and 3.2 µM: IC50 (curve of compound)
inactive: viability, T/C (compound 0.0316 µM) 90.8% and 96.5% | viability, T/C (compound 0.1 µM) 94.5% and 103% | viability, T/C (compound 0.316 µM) 83.5% and 95.9% | viability, T/C (compound 1 µM) 91.6% and 83% | viability, T/C (compound 3.16 µM) 82.8% and 50.5% | viability, T/C (compound 10 µM) 101% and 21.5%

COc1cc(Nc2ncc3c(n2)-c2ccc(Cl)cc2C(c2c(F)cccc2OC)=NC3)ccc1C(=O)O + NC1CC1c1ccc(-c2cccc(O)c2)cc1
0.506 µM: IC50 [2]
0.517 µM: IC50 [3]
0.38 µM: IC50 [4]
inactive: viability, T/C (second compound 0.1 µM, first compound 0.00316 µM) 59.8% | viability, T/C (second compound 0.1 µM, first compound 0.01 µM) 67.3% | viability, T/C [6] 64.1% | viability, T/C [7] 62.7% | viability, T/C [8] 58.5% | viability, T/C [9] 29.4% | viability, T/C (second compound 0.316 µM, first compound 0.00316 µM) 60.5% | viability, T/C (second compound 0.316 µM, first compound 0.01 µM) 68.1% | viability, T/C [10] 68% | viability, T/C [11] 65.7% | viability, T/C [12] 61.9% | viability, T/C [13] 32.6% | viability, T/C (second compound 1 µM, first compound 0.00316 µM) 67.2% | viability, T/C (second compound 1 µM, first compound 0.01 µM) 70% | viability, T/C [14] 68.7% | viability, T/C [15] 69.2% | viability, T/C [16] 63.2% | viability, T/C [17] 31.9% | viability, T/C (second compound 3.16 µM, first compound 0.00316 µM) 71.3% | viability, T/C (second compound 3.16 µM, first compound 0.01 µM) 75.5% | viability, T/C [18] 72.5% | viability, T/C [19] 69.1% | viability, T/C [20] 54.7% | viability, T/C [21] 25.4% | viability, T/C (second compound 10 µM, first compound 0.00316 µM) 59.4% | viability, T/C (second compound 10 µM, first compound 0.01 µM) 61% | viability, T/C [22] 64.1% | viability, T/C [23] 56.9% | viability, T/C [24] 49.9% | viability, T/C [25] 25.3%
0.442 µM: IC50 [1]
0.301 µM: IC50 [5]

Nc1ccccc1NC(=O)c1ccc(CNC(=O)OCc2cccnc2)cc1
inactive: viability, T/C (compound 0.00949 µM) 96.1% and 95.3% | viability, T/C (compound 0.03 µM) 102% and 98.5% | viability, T/C (compound 0.0949 µM) 135% and 108% | viability, T/C (compound 0.3 µM) 45.6% and 92.6%
0.278 µM and 0.542 µM: IC50 (curve of compound)
active: viability, T/C (compound 0.949 µM) 2.72% and 9.58% | viability, T/C (compound 3 µM) 0.41% and 0.94%

Nc1ccccc1NC(=O)c1ccc(CNC(=O)OCc2cccnc2)cc1 + NC1CC1c1ccc(-c2cccc(O)c2)cc1
0.52 µM: IC50 [3]
inactive: viability, T/C [26] 101% | viability, T/C [27] 96.2% | viability, T/C [28] 107% | viability, T/C [29] 89.4% | viability, T/C [30] 104% | viability, T/C [31] 102% | viability, T/C [32] 109% | viability, T/C [33] 90.8% | viability, T/C [34] 101% | viability, T/C [35] 103% | viability, T/C [36] 107% | viability, T/C [37] 88.6% | viability, T/C [38] 100% | viability, T/C [39] 102% | viability, T/C [40] 90.8% | viability, T/C [41] 80.6% | viability, T/C [42] 88% | viability, T/C [43] 82.6% | viability, T/C [44] 82.3% | viability, T/C [45] 70.9%
active: viability, T/C (second compound 0.1 µM, first compound 0.949 µM) 8.16% | viability, T/C (second compound 0.1 µM, first compound 3 µM) 0.69% | viability, T/C (second compound 0.316 µM, first compound 0.949 µM) 8.21% | viability, T/C (second compound 0.316 µM, first compound 3 µM) 0.84% | viability, T/C (second compound 1 µM, first compound 0.949 µM) 7.91% | viability, T/C (second compound 1 µM, first compound 3 µM) 0.77% | viability, T/C (second compound 3.16 µM, first compound 0.949 µM) 6.04% | viability, T/C (second compound 3.16 µM, first compound 3 µM) 0.79% | viability, T/C (second compound 10 µM, first compound 0.949 µM) 8.68% | viability, T/C (second compound 10 µM, first compound 3 µM) 0.61%
0.53 µM: IC50 [2]
0.441 µM: IC50 [5]
0.525 µM: IC50 [1]
0.481 µM: IC50 [4]

Nc1ccn(C2OC(CO)C(O)C2(F)F)c(=O)n1 (stereo not drawn) + NC1CCC(NC2CC2c2ccccc2)CC1
> 0.3 µM: IC50 [1] | IC50 [2] | IC50 [3] | IC50 [4] | IC50 [5]
inactive: viability, T/C (second compound 0.1 µM, first compound 0.000949 µM) 77.4% | viability, T/C (second compound 0.1 µM, first compound 0.003 µM) 53.8% | viability, T/C [26] 56.2% | viability, T/C [27] 59.2% | viability, T/C [28] 57.8% | viability, T/C [29] 55.6% | viability, T/C (second compound 0.316 µM, first compound 0.000949 µM) 77.7% | viability, T/C (second compound 0.316 µM, first compound 0.003 µM) 54.9% | viability, T/C [30] 54.6% | viability, T/C [31] 58.6% | viability, T/C [32] 56.4% | viability, T/C [33] 54.3% | viability, T/C (second compound 1 µM, first compound 0.000949 µM) 85.6% | viability, T/C (second compound 1 µM, first compound 0.003 µM) 56.5% | viability, T/C [34] 57.8% | viability, T/C [35] 60.4% | viability, T/C [36] 58% | viability, T/C [37] 54.7% | viability, T/C (second compound 3.16 µM, first compound 0.000949 µM) 84.8% | viability, T/C (second compound 3.16 µM, first compound 0.003 µM) 56% | viability, T/C [38] 60.8% | viability, T/C [39] 63.4% | viability, T/C [40] 60.1% | viability, T/C [41] 54.7% | viability, T/C (second compound 10 µM, first compound 0.000949 µM) 90.5% | viability, T/C (second compound 10 µM, first compound 0.003 µM) 62.5% | viability, T/C [42] 64% | viability, T/C [43] 70% | viability, T/C [44] 68.5% | viability, T/C [45] 64.1%

Nc1ccn(C2OC(CO)C(O)C2(F)F)c(=O)n1 (stereo not drawn)
> 0.3 µM: IC50 (curve of compound)
inactive: viability, T/C (compound 0.000949 µM) 73.3% and 67.7% | viability, T/C (compound 0.003 µM) 53.2% and 58.2% | viability, T/C (compound 0.00949 µM) 57.9% and 55.9% | viability, T/C (compound 0.03 µM) 62.1% and 61.5% | viability, T/C (compound 0.0949 µM) 64.6% and 63.9% | viability, T/C (compound 0.3 µM) 58.1% and 64.4%

COc1ccc([C@@H](O)c2cc(-c3ncnc4cc(N5CCOCC5)ccc34)c(F)cc2Cl)nn1
7.38% and 8.2%: viability, T/C (compound 3.16 µM)
inactive: viability, T/C (compound 0.0316 µM) 101% and 98.9% | viability, T/C (compound 0.1 µM) 128% and 95.7% | viability, T/C (compound 0.316 µM) 98.3% and 76% | viability, T/C (compound 1 µM) 38.5% and 29.6%
active: viability, T/C (compound 10 µM) 6.64% and 11.3%
0.798 µM and 0.599 µM: IC50 (curve of compound)
